Test results from US20250376498A1, “FUSION PROTEINS COMPRISING AN IMPROVED GLP-1 RECEPTOR AGONIST AND USES THEREOF” (Guangzhou Innogen Pharmaceutical Group Co., Ltd., priority 2022, published 2025).
Entries after “also recorded” stand apart in the source; their conditions may differ.

Columns and labels:
SH-SY5Y neuronal cells [1] = test: TNF-α-induced apoptosis in SH-SY5Y cells (western blot Bcl-2, cleaved-caspase3); assay type: cell-based; settings: 60 ng/ml TNF-α, 48 hours; YN-011 10, 100, 500 nM; GABA 1, 10, 100 μM; combination 100 μM GABA + 100 nM YN-011
Procedure: The experimental procedure is as follows: • 1) Digest SH-SY5Y neuronal cells in a 10 cm culture dish using 0.25% trypsin and seed them into a 12-well plate. • 2) Place the culture plate in a CO2 incubator for overnight pre-culture (37° C., 5% CO2) to allow cell adhesion. • 3) Using medium containing 5% FBS, treat the cells in each well with 60 ng/ml TNF-α alone or co-treated with 10, 100, or 500 nM YN-011. Incubate the cells at 37° C. for 48 hours. Each drug treatment is performed in three replicate wells. • 4) After 48 hours, discard the supernatant, gently wash the cells once with PBS, and place the cell culture plate on ice. Add 120 μl of RIPA cell lysis buffer (Beyotime P0013B) to each well, including protease and phosphatase inhibitors, and lyse the cells for 15 minutes. • 5) Transfer the cell lysate to a 1.5 ml EP tube and centrifuge at 14,000 rpm for 30 minutes. • 6) Carefully aspirate the supernatant into a new EP tube, add 5× loading buffer containing β-mercaptoethanol, and boil the samples at 100° C. for 10 minutes to denature the proteins. • 7) Perform SDS-PAGE gel electrophoresis with 10 μg of protein loaded per lane. Position the gel vertically against the power rack in the electrophoresis tank, ensuring that the concave side of the gel faces the power rack. Two gels can share one power rack. Fix the gel and power rack in the electrophoresis tank as required. […]

SH-SY5Y neuronal cells [2] = test: TNF-α-induced decrease in SH-SY5Y cell viability (CCK-8); assay type: cell-based; settings: 60 ng/ml TNF-α, 48 hours; YN-011 10, 100, 500 nM; GABA 100 μM
Procedure: SH-SY5Y neuronal cells were digested using 0.25% trypsin to prepare a single-cell suspension. The single-cell suspension was seeded in a 96-well plate at a density of 10,000 cells per well in 100 μl of medium. The plate was placed in a CO2 incubator overnight (37° C., 5% CO2) to allow cell adhesion. The medium was replaced with medium containing 10% FBS or 5% FBS, and cells were stimulated with 20, 40, 60, 80, or 100 ng/ml TNF-α for 48 hours. Each drug treatment was performed in six replicate wells. After 48 hours of drug treatment, 10 μl of CCK-8 solution was added to each well, and the plate was gently shaken to mix the reagents. The plate was then incubated in a CO2 incubator for 1-4 hours. The absorbance at 450 nm was measured using a microplate reader, and cell viability was calculated using the following formula:
[formula] • A (treated): OD value of wells containing cells, CCK-8 solution, and drug solution • A (control): OD value of wells containing cells and CCK-8 solution without drug solution • A (blank): OD value of wells without cells
Please refer to section 8.1 for the experimental procedure, but the drug treatment in this experiment is different from section 8.1. […]

In the case of `NCCCC(=O)O` [GABA, γ-aminobutyric acid], the “TNF-α-induced apoptosis in SH-SY5Y neuronal cells (western blot)” value (SH-SY5Y neuronal cells [1]) is reported as “reduces TNF-α-induced apoptosis; also recorded: reduction of TNF-α-induced apoptosis” and the SH-SY5Y cell viability (SH-SY5Y neuronal cells [2]) is reported as “significantly enhanced cell viability; also recorded: inhibiting TNF-α-induced reduction in SH-SY5Y cell viability”.

B1: YN-011: GLP-1 fusion protein of SEQ ID NO: 7: GLP-1 (A8G, G22E, R36G), linker peptide and IgG2/Fc domain (C222S, A330S, P331S) (protein)
chain: HGEGTFTSDVSSYLEEQAAKEFIAWLVKGGGSSGAPPPSGGGGSERKSCVECPPCPAPPVAGPSVFLFPPKPKDTLMISRTPEVTCVVVDVSHEDPEVQFNWYVDGVEVHNAKTKPREEQFNSTFRVVSVLTVVHQDWLNGKEYKCKVSNKGLPSSIEKTISKTKGQPREPQVYTLPPSREEMTKNQVSLTCLVKGFYPSDIAVEWESNGQPENNYKTTPPMLDSDGSFFLYSKLTVDKSRWQQGNVFSCSVMHEALHNHYTQKSLSLSPG
B1 was tested, and the “TNF-α-induced apoptosis in SH-SY5Y neuronal cells (western blot)” value (SH-SY5Y neuronal cells [1]) was “significantly reduces TNF-α-induced apoptosis; also recorded: reduction of TNF-α-induced apoptosis” and the SH-SY5Y cell viability (SH-SY5Y neuronal cells [2]) was “significantly enhanced cell viability; also recorded: inhibiting TNF-α-induced reduction in SH-SY5Y cell viability”.
